Counter-ions that a name gives are not always drawn.
Assays:
[1] = target: drug metabolizing enzyme CYP3A4 (Homo sapiens, UniProt P08684); assay: Cytochrome P450 (3A4) inhibition assay (BFC substrate, fluorescence); assay type: in vitro ADME; settings: BFC 5×10^−5 M substrate, 37° C., 30 minutes; read-out: Inhibition activity against drug metabolizing enzyme CYP3A4 (IC50/μM)
Procedure: (3) Cytochrome P450 (3A4) Inhibition Assay:
An assay was carried out according to the method of Crespi, et al. (Analytical Biochemistry, 248, 188–190, 1997). Using a 96-well plate, BFC (5×10^−5 M) as a substrate, a test compound (from 9.1×10^−8 to 2×10^−5 M), and an enzyme (10^−8 M) were incubated at 37° C. for 30 minutes in a total amount of 100 μL of a 20 mM phosphoric acid buffer solution (pH: 7.4) containing 1.3 mM NADP+, 3.3 mM glucose-6-pharpahte, 3.3 mM magnesium chloride, and 0.4 Units/mL glucose-6-phosphate dehydrogenase. Thereafter, a 100 mM TRIS buffer solution containing 80% acetonitrile was added to stop the reaction, and a fluorescent intensity (excitation wavelength: 409 nm, fluorescent wavelength: 530 nm) was measured by a fluorescent plate reader. An inhibition rate was calculated according to the following equation, and a concentration of the test compound at the inhibition rate of 50% (IC50 value) was determined. Inhibition rate (%)=[100−(C1−B1)]/(C0−B1)×100 C1: A fluorescent intensity in the presence of the test compound having a known concentration, enzyme and the substrate C0: A fluorescent intensity in the presence of enzyme and the substrate and in the absence of the test compound B1: A fluorescent intensity of the blank well

[2] = target: T1, arginine vasopressin V2 receptor (Rattus norvegicus, UniProt Q00788); assay: V2 receptor binding assay ([3H]-vasopressin, rat renal medullary membrane specimen); settings: [3H]-vasopressin 0.5 nM, read-out: Binding activity against arginine vasopressin V2 receptor (pKi) (converted)
T1 construct: A rat renal medullary membrane specimen was prepared; from tissue; host or cells: rat renal medulla (membrane specimen)
T1 sequence (Q00788 whole entry): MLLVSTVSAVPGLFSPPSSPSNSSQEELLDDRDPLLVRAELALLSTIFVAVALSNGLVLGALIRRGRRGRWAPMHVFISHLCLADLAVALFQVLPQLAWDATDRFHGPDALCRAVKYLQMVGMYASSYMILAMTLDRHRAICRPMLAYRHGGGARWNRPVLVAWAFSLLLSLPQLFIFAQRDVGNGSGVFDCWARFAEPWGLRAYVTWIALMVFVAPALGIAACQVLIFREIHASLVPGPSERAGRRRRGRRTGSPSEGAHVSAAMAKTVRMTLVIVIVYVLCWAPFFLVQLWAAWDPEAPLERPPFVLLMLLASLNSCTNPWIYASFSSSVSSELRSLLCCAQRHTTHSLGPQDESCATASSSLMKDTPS
Procedure: (2) V2 Receptor Binding Assay:
A rat renal medullary membrane specimen was prepared according to the method of Cambell, et al. (Journal of Biological Chemistry, Vol. 247, No. 19, pp. 6167–6175, 1972). The rat renal medullary membrane specimen (200 μg) was treated together with [^3H]-vasopressin (0.5 nM, specific activity: 75 Ci/mmol) and a test compound (from 10^−10 to 10^−6 M) in the same manner as in the foregoing V1A receptor binding assay, and the same measurement was carried out to determine a pKi value.

[3] = target: T2, arginine vasopressin V1A receptor (Rattus norvegicus, UniProt P30560); assay: V1A receptor binding assay ([3H]-vasopressin, rat hepatic membrane specimen); settings: [3H]-vasopressin 0.5 nM, 25° C., 60 minutes, read-out: Binding activity against arginine vasopressin V1A receptor (pki) (converted)
T2 construct: A rat hepatic membrane specimen was prepared; from tissue; host or cells: rat liver (hepatic membrane specimen)
T2 sequence (P30560 whole entry): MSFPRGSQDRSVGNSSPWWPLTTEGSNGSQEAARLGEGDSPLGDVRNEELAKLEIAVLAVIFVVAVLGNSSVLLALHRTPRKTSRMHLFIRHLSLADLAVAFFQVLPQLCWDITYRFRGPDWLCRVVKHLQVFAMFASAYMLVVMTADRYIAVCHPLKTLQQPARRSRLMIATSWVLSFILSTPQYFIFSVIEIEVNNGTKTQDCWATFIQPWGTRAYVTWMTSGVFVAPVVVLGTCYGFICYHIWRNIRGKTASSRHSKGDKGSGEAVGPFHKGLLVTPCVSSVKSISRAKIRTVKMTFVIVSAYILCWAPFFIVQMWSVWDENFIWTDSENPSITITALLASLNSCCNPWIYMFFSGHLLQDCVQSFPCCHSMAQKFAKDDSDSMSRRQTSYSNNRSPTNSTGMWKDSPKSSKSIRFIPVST
Procedure: (1) V1A Receptor Binding Assay:
A rat hepatic membrane specimen was prepared according to the method of Nakamura, et al. (Journal of Biological Chemistry, Vol. 258, No. 15, pp. 9283–9289, 1983). The hepatic membrane specimen (30 μg) was incubated at 25° C. for 60 minutes in a total amount of 250 μL of a 50 mM TRIS-HCl buffer solution (pH: 7.4) containing 10 mM magnesium chloride and 0.1% bovine serum albumin (BSA), together with [^3H]-Arg-vasopressin (hereinafter simply referred to as “[^3H]-vasopressin”) (0.5 nM, specific activity: 75 Ci/mmol) and a test compound (from 10^−10 to 10^−6 M). Thereafter, liberated [^3H]-vasopressin and receptor-binding [^3H]-vasopressin were separated from each other by using a cell harvester, and the receptor-binding [^3H]-vasopressin was adsorbed on a UniFilter plate, GF/B glass filter. After thoroughly drying, the receptor-binding [^3H]-vasopressin was mixed with a microplate scintillation cocktail, the amount of the receptor-binding [^3H]-vasopressin was measured by using TopCount, and an inhibition rate was calculated according to the following equation. Inhibition rate (%)=[100−(C1−B1)]/(C0−B1)×100 C1: An amount of [^3H]-vasopressin binding to the membrane specimen when treating the receptor membrane specimen in the co-presence of the test compound having a known concentration and [^3H]-vasopressin C0: An amount of [^3H]-vasopressin binding to the membrane specimen when treating the receptor membrane specimen in the presence of [^3H]-vasopressin and in the absence of the test compound B1: An amount of [^3H]-vasopressin binding to the membrane specimen when treating the receptor membrane specimen in the co-presence of [^3H]-vasopressin and an excessive amount of vasopressin (10^−6 M)
According to the foregoing equation, a concentration of the test compound at the inhibition rate of 50% (IC50 value) was calculated, from which was then calculated an affinity of the test compound with the receptor, i.e., a dissociation constant (Ki), according to the following equation. Ki=IC50/(1+[L]/Kd) [L]: A concentration of [^3H]-vasopressin Kd: A dissociation constant of [^3H]-vasopressin against the receptor as determined by the saturation binding assay
A logarithm of the Ki value as calculated according to the foregoing equation was taken, and its negative value was defined as a pKi value.

Chain of drug metabolizing enzyme CYP3A4 (P08684 whole entry): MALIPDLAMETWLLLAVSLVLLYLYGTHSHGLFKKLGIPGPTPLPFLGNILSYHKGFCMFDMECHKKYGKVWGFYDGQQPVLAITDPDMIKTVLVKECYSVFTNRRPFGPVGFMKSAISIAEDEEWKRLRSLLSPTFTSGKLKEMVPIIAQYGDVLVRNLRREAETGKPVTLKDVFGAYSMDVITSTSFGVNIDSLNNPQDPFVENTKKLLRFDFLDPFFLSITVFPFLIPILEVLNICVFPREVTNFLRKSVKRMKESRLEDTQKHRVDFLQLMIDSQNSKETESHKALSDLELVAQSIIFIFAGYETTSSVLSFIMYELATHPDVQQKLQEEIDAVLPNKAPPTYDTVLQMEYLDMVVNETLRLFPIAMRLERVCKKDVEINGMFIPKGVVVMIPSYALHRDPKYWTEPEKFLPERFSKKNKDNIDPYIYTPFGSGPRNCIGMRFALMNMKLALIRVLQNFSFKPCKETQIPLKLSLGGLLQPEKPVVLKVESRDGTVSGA

Compound | IC50 [1] [µM] | Ki [2] [nM] | Ki [3] [nM] | melting point [°C]
O=C(Nc1ccc(C(=O)N2CCc3nc(Cc4ccccc4)[nH]c3-c3ccccc32)cc1)c1ccccc1-c1ccccc1 [Control compound 1, N-[4-(2-Benzyl-1,4,5,6-tetrahydroimidazo[4 5-d] [1]benzazepine-6-carbonyl)phenyl]biphenyl-2-carboxamide hydrochloride, reference compound] | 0.21 | 8.51 | 7.76 | 
O=C(Nc1ccc(C(=O)N2CCc3nc(C4CC4)[nH]c3-c3ccccc32)cc1)c1ccccc1-c1ccccc1 [Control compound 2, N-[4(2-Cyclopropyl-1,4,5,6-tetrahydroimidazo[4,5-d] [1]benzazepine-6-carbonyl)phenyl]biphenyl-2-carboxamide hydrochloride, reference compound] | 0.43 | 1.05 | 1.23 | 
O=C(Nc1ccc(C(=O)N2CCc3nc(-c4ccccn4)[nH]c3-c3ccccc32)cc1O)c1ccccc1-c1ccccc1 [Example 12, N-{2-Hydroxy-4-[2-(2-pyridyl)-1,4,5,6-tetrahydroimidazo[4,5-d][1]-benzazepine-6-carbonyl]phenyl}biphenyl-2-carboxamide hydrochloride] | 5.9 | 28.8 | 7.59 | 

Now from value to compound:

IC50 [1] [µM] | Ki [2] [nM] | Ki [3] [nM] | melting point [°C] | Compound
7.82 | 6.03 | 2.82 |  | O=C(Nc1ccc(C(=O)N2CCc3nc(-c4ccccn4)[nH]c3-c3ccccc32)cc1)c1ccccc1-c1ccccc1 [Example 1, N-{4-[2-(2-Pyridyl)-1,4,5,6-tetrahydroimidazo[4,5-d][1]benzazepine-6-carbonyl]phenyl}biphenyl-2-carboxamide hydrochloride]
 |  |  | 240 to 242 | O=C(Nc1ccc(C(=O)N2CCc3nc(-c4ccccn4)[nH]c3-c3ccccc32)cc1)c1ccccc1-c1ccccc1 [Example 6, N-{4-[2-(2-Pyridyl)-1,4,5,6-tetrahydroimidazo[4,5-d][1]benzazepine-6-carbonyl]phenyl}biphenyl-2-carboxamide]
2.4 | 10.5 | 3.8 |  | O=C(Nc1ccc(C(=O)N2CCc3nc(-c4ccccn4)[nH]c3-c3ccccc32)cc1)c1ccccc1-c1ccccc1F [Example 9, 2′-fluoro-N-{4-[2-(2-pyridyl)-1,4,5,6-tetrahydroimidazo[4,5-d][1]benzazepine-6-carbonyl]phenyl}biphenyl-2-carboxamide]
2 | 12.3 | 1.95 |  | O=C(Nc1ccc(C(=O)N2CCc3nc(-c4ccccn4)[nH]c3-c3ccccc32)nc1)c1ccccc1-c1ccccc1 [Example 11, N-{6-[2-(2-pyridyl)-1,4,5,6-tetrahydroimidazo[4,5-d][1]benzazepine-6-carbonyl]-3-pyridyl}biphenyl-2-carboxamide]

Reference: patent US7056910B2, “1,4,5.6-tetrahydroimidazo[4,5-d]diazepine derivatives or salts thereof” (Astellas Pharma Inc., priority 2000, dated 2006)
